Experimental data published in ChEMBL document CHEMBL2057178, “Novel synthetic route to the C-nucleoside, 2-deoxy benzamide riboside” (Bioorg Med Chem Lett, 2012).
Calls of active or inactive are those of the source. The rule behind the calls is not given here.

Columns and labels:
Format in all cases: functional, cell-based
MCF7 [1] = assay: Growth inhibition of human MCF7 cells at 50 uM
PC-3 [2] = assay: Growth inhibition of human PC3 cells at 500 uM
PC-3 [3] = assay: Growth inhibition of human PC3 cells up to 1 mM relative to DMSO-treated control
T47D = assay: Growth inhibition of human T47D cells up to 1 mM relative to DMSO-treated control
HT-29 = assay: Growth inhibition of human HT-29 cells up to 1 mM relative to DMSO-treated control
HCT-116 = assay: Growth inhibition of human HCT116 cells up to 1 mM relative to DMSO-treated control
DU-145 = assay: Growth inhibition of human DU145 cells up to 1 mM relative to DMSO-treated control
NCI-H460 = assay: Growth inhibition of human H460 cells up to 1 mM relative to DMSO-treated control
MCF7 [4] = assay: Growth inhibition of human MCF7 cells up to 1 mM relative to DMSO-treated control
RKO = assay: Growth inhibition of human RKO cells up to 1 mM relative to DMSO-treated control

NC(=O)c1cccc([C@@H]2O[C@H](CO)[C@@H](O)[C@H]2O)c1
growth inhibition (GI) (MCF7 [1]): Active

NC(=O)c1csc([C@@H]2O[C@H](CO)[C@@H](O)[C@H]2O)n1
growth inhibition (GI) (PC-3 [2]): Active

NC(=O)c1cccc([C@H]2C[C@H](O)[C@@H](CO)O2)c1 (racemic)
growth inhibition (GI) (PC-3 [3]): inactive
growth inhibition (GI) (T47D): inactive
growth inhibition (GI) (HT-29): inactive
growth inhibition (GI) (HCT-116): inactive
growth inhibition (GI) (DU-145): inactive
growth inhibition (GI) (NCI-H460): inactive
growth inhibition (GI) (MCF7 [4]): inactive
growth inhibition (GI) (RKO): inactive
